These results are taken from publication PMC7305236, “The atypical chemokine receptor ACKR3/CXCR7 is a broad-spectrum scavenger for opioid peptides” (Nature Communications, 2020).

Experiment in all cases: Figure S2a opioid peptide screen on chemokine receptors
Format in all cases: cell-based
What all share (design): dose or concentration left out as unconfirmed

In assay [1] the target is T1, CXCR3A (Homo sapiens, UniProt P49682).
T1 construct: expressed in transfected cells; host or cells: U87 cells
T1 sequence (P49682 1-368): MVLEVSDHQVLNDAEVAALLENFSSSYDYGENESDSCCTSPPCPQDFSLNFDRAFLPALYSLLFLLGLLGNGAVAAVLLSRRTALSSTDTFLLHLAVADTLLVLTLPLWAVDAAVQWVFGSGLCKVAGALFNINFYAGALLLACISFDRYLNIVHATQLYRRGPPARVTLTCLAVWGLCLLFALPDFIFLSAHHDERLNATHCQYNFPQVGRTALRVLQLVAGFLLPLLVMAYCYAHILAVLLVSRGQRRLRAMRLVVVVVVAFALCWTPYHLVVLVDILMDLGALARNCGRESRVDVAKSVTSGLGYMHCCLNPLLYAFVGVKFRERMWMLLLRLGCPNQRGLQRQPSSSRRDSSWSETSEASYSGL

The target in assay [2] is T2, CCR1 (Homo sapiens, UniProt P32246).
T2 construct: expressed in transfected cells
T2 sequence (P32246 1-355): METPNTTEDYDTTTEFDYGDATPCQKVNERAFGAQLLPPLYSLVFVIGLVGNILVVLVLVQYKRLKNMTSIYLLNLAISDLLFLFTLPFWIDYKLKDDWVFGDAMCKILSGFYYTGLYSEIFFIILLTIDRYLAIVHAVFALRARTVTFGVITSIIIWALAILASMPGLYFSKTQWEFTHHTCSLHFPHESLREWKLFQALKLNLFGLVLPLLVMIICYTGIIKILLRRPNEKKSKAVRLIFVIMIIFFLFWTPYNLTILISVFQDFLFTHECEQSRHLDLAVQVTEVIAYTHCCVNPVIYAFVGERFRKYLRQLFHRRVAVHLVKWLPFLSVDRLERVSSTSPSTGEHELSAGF

For assay [3], the target named is T3, ACKR2 (Homo sapiens, UniProt O00590).
T3 construct: expressed in transfected cells; host or cells: U87 cells (human glioblastoma)
T3 sequence (O00590 1-384): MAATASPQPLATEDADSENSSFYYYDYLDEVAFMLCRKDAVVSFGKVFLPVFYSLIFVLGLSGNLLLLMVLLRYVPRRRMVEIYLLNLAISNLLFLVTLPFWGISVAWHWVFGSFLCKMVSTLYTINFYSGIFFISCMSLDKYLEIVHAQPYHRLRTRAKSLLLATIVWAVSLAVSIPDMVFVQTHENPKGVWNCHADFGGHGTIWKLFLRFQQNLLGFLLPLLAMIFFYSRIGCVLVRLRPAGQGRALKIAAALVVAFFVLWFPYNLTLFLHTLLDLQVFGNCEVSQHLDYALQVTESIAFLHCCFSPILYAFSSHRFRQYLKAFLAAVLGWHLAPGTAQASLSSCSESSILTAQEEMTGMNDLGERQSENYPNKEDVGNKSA

Assay [4] addresses T4, XCR1 (Homo sapiens, UniProt P46094).
T4 construct: expressed in transfected cells
T4 sequence (P46094 1-333): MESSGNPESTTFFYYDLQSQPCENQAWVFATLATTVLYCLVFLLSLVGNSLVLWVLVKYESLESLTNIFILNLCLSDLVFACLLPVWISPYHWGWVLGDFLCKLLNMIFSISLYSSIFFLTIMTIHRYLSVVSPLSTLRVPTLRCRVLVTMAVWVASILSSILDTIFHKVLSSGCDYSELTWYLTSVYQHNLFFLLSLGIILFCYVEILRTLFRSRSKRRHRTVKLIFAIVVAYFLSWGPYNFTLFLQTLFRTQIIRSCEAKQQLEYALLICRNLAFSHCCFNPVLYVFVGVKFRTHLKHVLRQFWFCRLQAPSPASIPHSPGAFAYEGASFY

Assay [5] concerns the target T5, CXCR2 (Homo sapiens, UniProt P25025).
T5 construct: expressed in transfected cells
T5 sequence (P25025 1-360): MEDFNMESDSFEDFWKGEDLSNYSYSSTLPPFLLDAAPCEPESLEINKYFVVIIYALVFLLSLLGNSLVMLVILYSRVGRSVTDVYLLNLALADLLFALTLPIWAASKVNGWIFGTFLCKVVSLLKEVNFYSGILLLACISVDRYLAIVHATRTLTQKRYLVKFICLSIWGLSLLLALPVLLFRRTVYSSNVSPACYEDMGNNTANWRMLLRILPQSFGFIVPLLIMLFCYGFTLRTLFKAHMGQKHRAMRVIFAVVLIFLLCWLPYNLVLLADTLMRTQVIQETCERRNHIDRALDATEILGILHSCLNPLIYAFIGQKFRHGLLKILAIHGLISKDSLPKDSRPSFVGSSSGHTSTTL

Assay [6] has as its target T6, CXCR3B (Homo sapiens, UniProt P49682).
T6 construct: expressed in transfected cells; host or cells: U87 cells
T6 sequence (P49682 1-415 isoform P49682-2): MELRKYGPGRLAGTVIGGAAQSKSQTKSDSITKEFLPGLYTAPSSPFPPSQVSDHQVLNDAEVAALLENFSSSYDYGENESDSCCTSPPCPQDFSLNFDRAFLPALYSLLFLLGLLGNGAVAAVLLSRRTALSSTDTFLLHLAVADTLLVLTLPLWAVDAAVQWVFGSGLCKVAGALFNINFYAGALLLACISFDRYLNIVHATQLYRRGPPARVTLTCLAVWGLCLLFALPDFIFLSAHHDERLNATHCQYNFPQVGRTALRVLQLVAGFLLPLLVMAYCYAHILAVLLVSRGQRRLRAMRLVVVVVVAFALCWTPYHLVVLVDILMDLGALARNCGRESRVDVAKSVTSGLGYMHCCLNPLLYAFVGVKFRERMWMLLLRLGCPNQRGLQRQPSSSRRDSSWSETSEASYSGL

Assay [7] has as its target T7, CCR5 (Homo sapiens, UniProt P51681).
T7 construct: expressed in transfected cells

Setting [8] is: replicate 1, read-out: CXCR3A activity, ctrl+ = 100.
Setting [9] is: replicate 2, read-out: CXCR3A activity, ctrl+ = 100.
The mark [10] stands for this setting: replicate 3, read-out: CXCR3A activity, ctrl+ = 100.
Where [11] appears, read: replicate 1, read-out: CCR1 activity, ctrl+ = 100.
The mark [12] stands for this setting: replicate 2, read-out: CCR1 activity, ctrl+ = 100.
[13] abbreviates: replicate 3, read-out: CCR1 activity, ctrl+ = 100.
Where [14] appears, read: replicate 1, read-out: ACKR2 activity, ctrl+ = 100.
The mark [15] stands for this setting: replicate 2, read-out: ACKR2 activity, ctrl+ = 100.
Where [16] appears, read: replicate 3, read-out: ACKR2 activity, ctrl+ = 100.
The mark [17] stands for this setting: replicate 1, read-out: XCR1 activity, ctrl+ = 100.
Where [18] appears, read: replicate 2, read-out: XCR1 activity, ctrl+ = 100.
[19] abbreviates: replicate 3, read-out: XCR1 activity, ctrl+ = 100.
The mark [20] stands for this setting: replicate 1, read-out: CXCR2 activity, ctrl+ = 100.
Setting [21] is: replicate 2, read-out: CXCR2 activity, ctrl+ = 100.
[22] abbreviates: replicate 3, read-out: CXCR2 activity, ctrl+ = 100.
[23] abbreviates: replicate 1, read-out: CXCR3B activity, ctrl+ = 100.
Setting [24] is: replicate 2, read-out: CXCR3B activity, ctrl+ = 100.
The mark [25] stands for this setting: replicate 3, read-out: CXCR3B activity, ctrl+ = 100.
The mark [26] stands for this setting: replicate 1, read-out: CCR5 activity, ctrl+ = 100.
[27] abbreviates: replicate 2, read-out: CCR5 activity, ctrl+ = 100.
The mark [28] stands for this setting: replicate 3, read-out: CCR5 activity, ctrl+ = 100.

Like-named read-outs stand apart in the source and are kept apart here.

T7 sequence (P51681 whole entry): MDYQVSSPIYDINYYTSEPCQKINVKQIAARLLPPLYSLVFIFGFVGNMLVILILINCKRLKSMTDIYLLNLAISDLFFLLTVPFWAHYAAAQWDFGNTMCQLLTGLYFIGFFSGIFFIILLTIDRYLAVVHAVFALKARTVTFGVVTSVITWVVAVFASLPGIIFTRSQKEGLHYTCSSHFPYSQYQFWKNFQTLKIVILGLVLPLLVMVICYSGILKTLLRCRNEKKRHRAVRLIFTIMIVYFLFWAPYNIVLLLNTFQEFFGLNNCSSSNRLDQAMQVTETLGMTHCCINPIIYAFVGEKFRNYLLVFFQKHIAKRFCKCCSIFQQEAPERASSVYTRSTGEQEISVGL

Consider `CSCC[C@H](NC(=O)[C@H](Cc1ccccc1)NC(=O)CNC(=O)CNC(=O)[C@@H](N)Cc1ccc(O)cc1)C(=O)N[C@@H](CCCNC(=N)N)C(=O)N[C@@H](CCCNC(=N)N)C(=O)N[C@H](C(N)=O)C(C)C` [Adrenorphin], for which the activation in assay [1] (setting [8]) is -0.787%; in assay [1] (setting [9]), 0.214%; in assay [1] (setting [10]) it was 3.64%; in assay [2] (setting [11]) it was -15%; in assay [2] (setting [12]), 8.25%; in assay [2] (setting [13]), -9.95%. Also, the activation in assay [3] (setting [14]) is -9.62%; in assay [3] (setting [15]), -28.7%; in assay [3] (setting [16]), -0.924%; in assay [4] (setting [17]) it was -2.07%; in assay [4] (setting [18]), 2.59%; in assay [4] (setting [19]), 12.1%. For the same compound, the activation is 3.42% in assay [5] (setting [20]); -6.62% in assay [5] (setting [21]); -0.394% in assay [5] (setting [22]); 3.73% in assay [6] (setting [23]); 1.55% in assay [6] (setting [24]); 0.555% in assay [6] (setting [25]). In addition, the activation was 0.166% in assay [7] (setting [26]), -0.467% in assay [7] (setting [27]) and -0.49% in assay [7] (setting [28]).
Turning to `CSCC[C@H](NC(=O)[C@H](Cc1ccccc1)NC(=O)CNC(=O)CNC(=O)[C@@H](N)Cc1ccc(O)cc1)C(=O)N[C@@H](CCCNC(=N)N)C(=O)N[C@@H](CCCNC(=N)N)C(=O)N[C@H](C(=O)NCC(=O)N[C@@H](CCCNC(=N)N)C(=O)N1CCC[C@H]1C(=O)N[C@@H](CCC(=O)O)C(=O)N[C@@H](Cc1c[nH]c2ccccc12)C(=O)N[C@@H](Cc1c[nH]c2ccccc12)C(=O)N[C@@H](CCSC)C(=O)N[C@@H](CC(=O)O)C(=O)N[C@@H](Cc1ccc(O)cc1)C(=O)N[C@@H](CCC(N)=O)C(=O)N[C@@H](CCCCN)C(=O)N[C@@H](CCCNC(=N)N)C(=O)N[C@@H](Cc1ccc(O)cc1)C(=O)NCC(=O)O)C(C)C` [BAM22], the activation in assay [1] (setting [8]) is 3.44%; in assay [1] (setting [9]), 2.11%; in assay [1] (setting [10]), 7.49%; in assay [2] (setting [11]) it was -7.62%; in assay [2] (setting [12]) it was 9.7%; in assay [2] (setting [13]), 10.5%. Moreover, the activation in assay [3] (setting [14]) was -3.78%; in assay [3] (setting [15]), -1.93%; in assay [3] (setting [16]), -0.478%; in assay [4] (setting [17]), -2.25%; in assay [4] (setting [18]), -4.24%; in assay [4] (setting [19]), 8.51%. Also, the activation was -3.38% in assay [5] (setting [20]); -4.91% in assay [5] (setting [21]); -1.55% in assay [5] (setting [22]); -1.43% in assay [6] (setting [23]); 0.626% in assay [6] (setting [24]); 5.18% in assay [6] (setting [25]). For the same compound, the figures for the activation in assay [7] (setting [26]), in assay [7] (setting [27]) and in assay [7] (setting [28]) were 0.229%, -1.32% and -1.42%, respectively.
As to `CC[C@H](C)[C@H](NC(=O)[C@H](CCCNC(=N)N)NC(=O)[C@H](CCCNC(=N)N)NC(=O)[C@H](CC(C)C)NC(=O)[C@H](Cc1ccccc1)NC(=O)CNC(=O)CNC(=O)[C@@H](N)Cc1ccc(O)cc1)C(=O)N[C@@H](CCCNC(=N)N)C(=O)N1CCC[C@H]1C(=O)N[C@@H](CCCCN)C(=O)N[C@@H](CC(C)C)C(=O)N[C@@H](CCCCN)C(=O)O` [Dynorphin 1-13], the activation in assay [1] (setting [8]) is -2.15%; in assay [1] (setting [9]), -8.16%; in assay [2] (setting [11]), -29%; in assay [2] (setting [12]) it was -26.2%; in assay [3] (setting [14]), -0.369%; in assay [3] (setting [15]) it was -39.6%. The activation in assay [4] (setting [17]) is -1.76%; in assay [4] (setting [18]), -0.309%; in assay [5] (setting [20]), -2.31%; in assay [5] (setting [21]), -22.4%; in assay [6] (setting [23]) it was 3.92%; in assay [6] (setting [24]), -5.01%. Besides, the values for the activation in assay [7] (setting [26]) and in assay [7] (setting [27]) were -0.272% and -1.44%, respectively.
Consider `CC[C@H](C)[C@H](NC(=O)[C@H](CCCNC(=N)N)NC(=O)[C@H](CCCNC(=N)N)NC(=O)[C@H](CC(C)C)NC(=O)[C@H](Cc1ccccc1)NC(=O)CNC(=O)CN)C(=O)N[C@@H](CCCNC(=N)N)C(=O)N1CCC[C@H]1C(=O)N[C@@H](CCCCN)C(=O)N[C@@H](CC(C)C)C(=O)N[C@@H](CCCCN)C(=O)N[C@@H](Cc1c[nH]c2ccccc12)C(=O)N[C@@H](CC(=O)O)C(=O)N[C@@H](CC(N)=O)C(=O)N[C@@H](CCC(N)=O)C(=O)O` [Dynorphin 2-17], for which the activation in assay [1] (setting [8]) is -4.16%; in assay [1] (setting [9]), -10.2%; in assay [2] (setting [11]) it was -21%; in assay [2] (setting [12]), -15.3%; in assay [3] (setting [14]), 12.5%; in assay [3] (setting [15]), -37.2%. In addition, the activation in assay [4] (setting [17]) was 3.87%; in assay [4] (setting [18]), -3.46%; in assay [5] (setting [20]) it was -7.18%; in assay [5] (setting [21]), -15.9%; in assay [6] (setting [23]), -1.19%; in assay [6] (setting [24]), -3.44%. For the same compound, the activation is 1.32% in assay [7] (setting [26]) and -2.11% in assay [7] (setting [27]).
